In PubChem BioAssay (NCI):
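Where inhibition never reached the appropriate level, the endpoint shown equals the highest concentration tested. Otherwise, values were interpolated linearly from a five-concentration, 48-hour dose response in 96-well plates. GI50 is the concentration that inhibits growth by half. TGI is the concentration that stops growth completely.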

Experiments:
Experiment in all cases: NCI-60 cell line screen, 48 h
DU-145 prostate = tested on: DU-145 prostate
HCT-116 colon = tested on: HCT-116 colon
HS 578T breast = tested on: HS 578T breast
HT29 colon = tested on: HT29 colon
LOX IMVI melanoma = tested on: LOX IMVI melanoma
NCI-H226 lung = tested on: NCI-H226 lung
RXF 393 renal = tested on: RXF 393 renal
SF-539 CNS = tested on: SF-539 CNS
SN12C renal = tested on: SN12C renal
SR leukemia = tested on: SR leukemia

SMILES	TGI (DU-145 prostate) [µM]	TGI (HCT-116 colon) [µM]	TGI (HS 578T breast) [µM]	TGI (HT29 colon) [µM]	TGI (LOX IMVI melanoma) [µM]	TGI (NCI-H226 lung) [µM]	TGI (RXF 393 renal) [µM]	TGI (SF-539 CNS) [µM]	TGI (SN12C renal) [µM]	TGI (SR leukemia) [µM]	GI50 (DU-145 prostate) [µM]	GI50 (HS 578T breast) [µM]	GI50 (HT29 colon) [µM]	GI50 (NCI-H226 lung) [µM]	GI50 (RXF 393 renal) [µM]	GI50 (HCT-116 colon) [µM]	GI50 (LOX IMVI melanoma) [µM]	GI50 (SF-539 CNS) [µM]	GI50 (SN12C renal) [µM]	GI50 (SR leukemia) [µM]
O=c1oc2c(Br)c(O)c(Br)cc2c2ccccc12	70.8	92.6	66.2	> 100	68.9	80.5	> 100	63.3	84.4	71.6	–	–	–	–	–	–	–	–	–	–
Nc1ccn(C2OC(CO[P+](=O)OC3C(CO[P+](=O)OC4C(CO[P+](=O)OC5C(CO[P+](=O)OC6C(CO[P+](=O)OC7C(CO[P+](=O)OC8C(CO[P+](=O)OC9C(CO[P+](=O)OC%10C(CO[P+](=O)OC%11C(CO)OC(n%12ccc(N)nc%12=O)C%11(F)F)OC(n%11ccc(N)nc%11=O)C%10(F)F)OC(n%10ccc(N)nc%10=O)C9(F)F)OC(n9ccc(N)nc9=O)C8(F)F)OC(n8ccc(N)nc8=O)C7(F)F)OC(n7ccc(N)nc7=O)C6(F)F)OC(n6ccc(N)nc6=O)C5(F)F)OC(n5ccc(N)nc5=O)C4(F)F)OC(n4ccc(N)nc4=O)C3(F)F)C(O)C2(F)F)c(=O)n1 (stereo not given)	0.13	> 100	–	> 100	> 100	> 100	> 100	–	–	0.507	0.0239	> 100	1.32	18.3	0.0618	–	–	–	–	–
Cn1c(=O)c(Sc2ccccc2F)cc2cnc(NC3CCOCC3)nc21	> 25	> 25	> 25	> 25	> 25	> 25	> 25	> 25	> 25	> 25	> 25	> 25	> 25	> 25	> 25	> 25	> 25	> 25	> 25	> 25
C=CC[Se]C(=O)c1ccccc1OC(C)=O	11.6	–	6.24	> 100	3.78	6.44	–	2.8	3.01	19.2	3.08	1.83	2.65	2.62	–	–	1.86	1.47	1.61	2.41
O=C1OCC2=C1C(c1ccccc1)c1cc3c(cc1N2CCO)CCC3 (stereo not given)	0.464	5.42	–	–	> 25	> 25	0.138	0.966	> 25	> 25	0.0778	0.0739	0.0878	1.02	0.0597	0.0857	0.176	0.0732	0.172	0.0762
S=C(Nc1ccc(-c2nc3ccccc3s2)cc1)Nc1ccccn1	> 100	55.5	59.2	> 80.4	39.4	> 76.2	> 74.5	> 100	63.6	57.4	28.5	21.5	28.3	26.4	33.1	21.5	18.2	37.8	22.9	26.6
COC(=O)C1=C2C3=C(C(=O)c4ccccc4C3=O)N(Cc3ccccc3)C2(OC(C)=O)C=CC1=O (stereo not given)	61.9	24.8	71.3	> 100	–	32.6	–	23.1	30.2	–	14.8	22	37	11.6	–	6.25	–	5.9	6.78	–
